The values below come from patent US7259146B2, “Neuroprotective peptides” (Ortho-McNeil Pharmaceutical, Inc., priority 2000, dated 2007).

Series [1] in a line: Plasma determinations (EPO ELISA) in ischemia studies. Type of series: in vivo, rat. The text has this:
Plasma Determinations: Blood samples were collected from each rat via the orbital sinus at the time of sacrifice. Plasma was separated out, frozen and analyzed by EPO ELISA for determination of plasma concentration (U/ml).
(In general: ELISA stands for enzyme-linked immunosorbent assay.)

The conditions of series [2]: cited from earlier work.
The test system of another series is PC-12 cells. The experiment in a line: NGF withdrawal in PC-12 cells. Type of series: cell-based, rat. The following applies: for protection against NGF withdrawal-induced cell death (in words): treated 24 hr before NGF removal, viable cells at 12, 24, 48, 72 hr. On the procedure: (§1) PC-12 cells (from a rat Pheochromocytoma) were cultured on poly-D-Lysine coated tissue culture plastic in DMEM containing 10% FBS and 5% Horse serum. To induce the neuronal phenotype in PC-12 cells, serum was removed and the cells were treated with NGF (50 ng/ml). Cells were grown for 7 days in the presence of the NGF then used for experiments.
PC-12 cells were cultured as described above in a 96 well poly-d-lysine coated multi-well plate and treated with rhEPO (1 pm to 10 nm) for 24 hr prior to NGF withdrawal. On the day of the experiment the cells were washed with buffer 3 times to remove NGF and then cultured in fresh media without NGF. Immediately following NGF washout cells were counted (t=0) to determine the number of living cells. Cell viability was based on morphological characteristics including phase brightness, presence of axons, and absence of blebbing. Cell counts were performed at 12 hr, 24 hr, 48 hr and 72 hr and the number of viable cells were scored.

Series [3] deals with spontaneous hypertensive rats rendered ischemic. As to the kind of experiment: Experimental model of cerebral ischemia (tandem CCA/MCA occlusion), infarct volume. Type of series: in vivo, rat. On the procedure: Male spontaneous hypertensive rats (Charles River) weighing between 250–300 g were weighed and then anesthetized with ketamine (100 mg/ml)/xylazine (20 mg/ml) cocktail (1.2 ml/kg; i.p.). The level of anesthetic was assessed by corneal reflex (air puff to eye) and leg jerk in response to tail or foot pinch. Once the rat was anesthetized, it was placed on a small animal surgical board and restrained during the surgical procedure. The rat's body temperature was monitored continuously with a rectal probe and maintained at 37° C. with a homeostatic heating pad.
Rats were rendered ischemic by tandem occlusion of the left common carotid artery and the left middle cerebral artery for 2 h followed by 22 h of reperfusion using a modification of the technique described by Brint and co-workers (J. Cereb Blood Flow Metab 8:474–485, 1988). Specifically, the left CCA was isolated through an incision in the ventral surface of the neck. For isolation of the ipsilateral MCA, a second incision was made between the lateral canthus of the left eye and the corresponding external auditory canal to bare the underlying skull. […]
Twenty-hours prior to the onset of ischemia, an osmotic mini-pump (Model 1003D; Alza) filled with vehicle or EPO was placed between the scapula of the rat. […] Twenty-two hours later, the rats were evaluated for behavioral performance, a blood sample was collected for terminal plasma levels of EPO and then the rat was euthanized, brain removed, sectioned and stained for histological analysis.
On Day One, the rats were rendered ischemic as described above. […] Twenty-two hours later, the rats were evaluated for behavioral performance, a blood sample was collected for terminal plasma levels of EPO and then the rat was euthanized, brain removed, sectioned and stained for histological analysis.
On Day One, the rats were rendered ischemic as described above. […] Twenty-two hours later, the rats were evaluated for behavioral performance, a blood sample was collected for terminal plasma levels of EPO and then the rat was euthanized, brain removed, sectioned and stained for histological analysis. […]

In another series the test system is bak. The experiment in a line: EPO induced gene expression in PC12 cells (quantitative RT-PCR). The series is classed as cell-based, rat. As to conditions: PC-12 cells. On the procedure:
as §1
(§2) PC-12 cells were cultured as described in Example 1 in a 10 cm poly-D-lysine coated tissue culture dish. Cells were incubated in the presence of 1 U/ml of EPO for 24 hr. Total RNAn was then isolated using a Qiagen RNAeasy mini prep kit and used for RT-PCR.
(§3) Real time reverse transcription and PCR were performed in a single reaction using a light cycler and an RNA amplification kit from Roche Molecular Biochemicals. RNA was quantitated and added in equal amounts to reaction mix that includes the dsDNA specific dye SYBR green I. Specific PCR reaction products are quantitated by detecting the amount of fluorescence in the reaction at each PCR cycle. Final analysis was performed using the data analysis software included with the light cycler instrument.

A further series deals with bclXL. The series is described as above. The series is classed as cell-based, rat. The following applies: PC-12 cells. The method, then:
as §1, §2, §3

Setting [4] is: 1 nm EPO for 24 hr (FIG. 3 legend).

“Also recorded” adds a separate entry of the source.

As to “EPO: purified, recombinant human EPO (rhEPO), formulated and distributed under the trademarks EPREX, ERYPO or PROCRIT”, the “plasma concentrations (terminal)” value in series [1] (Study I, continuous infusion) is on record as “correlated with the protective effect”; in series [1] (Study II, single iv bolus 1000, 2500 or 5000 U/kg), “low”. Also, in series [2] (patients), the “tolerability in studies conducted to date” value is recorded as “well tolerated”. Also, the “antibody titers against Epoetin alfa” value in series [2] (subjects treated for up to 2 years) is given as “No antibody titers”. The “optimum / peak concentration for the neuroprotective effect” value in the series on PC-12 cells (growth factor withdrawal) was 10 pm. Further, in the series on PC-12 cells (growth factor withdrawal, 1 nm), the “neuroprotective effect at 1 nm” value was “no significant effect”. In addition, in the series with PC-12 cells (growth factor withdrawal, protection decreasing above 10 pm), the “dose response curve for the neuroprotective effect” value is given as “bi-phasic”. Moreover, the results for the “protection against NGF withdrawal-induced cell death (in words)” value in the series with PC-12 cells and with PC-12 cells (listed as rhEPO) were “significant decrease in cell death; also recorded: increased the number of viable cells at each time point” and “protects rat PC12 cells against NGF withdrawal-induced cell death”, respectively. Further, the “infarct volume / protection against ischemic injury” value in series [3] (Study I: 132 or 1321 U/day continuous iv infusion via osmotic mini-pump, started before ischemia) is given as “significantly reduced infarct volume; also recorded: protects against ischemic injury”; in series [3] (Study III: repeat iv bolus 2500 U/kg at 15 min, 2 h, 4 h and 6 h post-occlusion), “significant decrease in infarct volume; also recorded: protects against ischemic injury”. In addition, the “protection against ischemic damage” value in series [3] (Study II: single iv bolus 15 min post-occlusion, 1000, 2500 or 5000 U/kg) is reported as “did not protect against ischemic damage; also recorded: does not protect against ischemic injury”. Further, the “decrease in the expression of the pro-apoptotic Bak” value with bak (setting [4]) is recorded as “greater than 5 fold”. The “decrease in the expression of the pro-apoptotic gene, bak” value in the series on bak (EPO 1 U/ml for 24 hr) was 5 fold. Besides, the “increase in the expression of the anti-apoptotic gene, bclXL” value in the series on bclXL (setting [4]) and in the series on bclXL (EPO 1 U/ml for 24 hr) was 6 fold throughout.
